Tests used:
LC3-II and p62/SQSTM1 = assay: Western blot of autophagy flux markers in cortex after CCI induced TBI; type: in vivo, mice
Experimental: (§1) Controlled cortical impact (CCI) induced TBI was performed in male C57BL6/J mice (20-25 g). Briefly, after a 10-mm midline incision was made over the skull, the skin and fascia were retracted, and a 4-mm craniotomy was made on the central aspect of the left parietal bone of mice under surgical anesthesia (2-3% isoflurane evaporated in a gas mixture containing 70% N20 and 30% 02). Moderate injury was induced in the exposed brain by a custom microprocessor-controlled and compressed air driven pneumatic impactor of 3.5 mm diameter tip with the impact velocity of 6 m/s and a deformation depth of 2 mm.
(§2) N-Acetyl-L-Leucine (“NAL” or “NALL”) was dissolved in ethanol to prepare a 50 mg/ml solution which was then diluted in water to give a 10 mg/ml solution. About 0.25 ml of the NAL solution (10 mg/ml) was orally administered in mice at a […] (2.5 mg NAL/25 g mouse) via oral gavage each day after CCI induced TBI for 4 days. Mice were also fed with NAL at 0.5 mg/kg chow powder chow mixed with diet gel for up to 7 days after injury.
(§3) Around 5 mm tissue of ipsilateral cortex around the site of injury from TBI mice or the corresponding tissue of same volume around the same cortical region from sham mice were dissected and processed. […] Protein bands were detected using chemiluminiscence kit (Pierce, 34076) and visualized using Chemi-doc system (Bio-Rad). Band intensity was analyzed using Image Lab software (Bio-Rad) and normalized to loading control (β-Actin). […]
Autophagy is a lysosome dependent cellular degradation process that is disrupted due to lysosomal damage after TBI. […] Whether attenuation of cell death following NALL treatment in TBI mice is mediated through the restoration of autophagy flux was assessed.
The levels of LC3-II and p62/SQSTM1 in the cortical tissue lysates prepared from vehicle and NAL fed naïve and TBI mice were determined by western blot analysis. A decrease in the levels of LC3-II in the brain of NALL fed mice as compared to vehicle treated mice at day 1 after TBI was detected. […]

[1] = system: rat model of an acute unilateral labyrinthectomy; conditions: activation of vestibulo-cerebellum, deactivation of posterolateral thalamus; cited from earlier work
α-fodrin = assay: Western blot of α-fodrin cleavage products in cortex after CCI induced TBI; type: in vivo, mice; conditions: NALL fed vs vehicle fed mouse cortices after TBI; oral gavage 10 mg/kg daily 4 days plus chow
Experimental: as §1, with “mm. […]” for “mm.”
The level of α-fodrin cleavage products in NALL treated, vehicle treated sham, and TBI mouse cortices were determined by Western blot analysis and using the TUNEL assay to assess whether NALL treatment decreases cortical cell death after TBI.
as §3

[2] = system: rat primary cortical neurons; assay: U18666A-mediated impairment of lysosomal fusion in rat primary cortical neurons; type: cell-based; conditions: co-treated with U18666A (2 μg/mL) and compound 1 mM, 24 h
Experimental: (§4) FIG. 18. is a histogram of the ratio of LC3-II normalised to βIII tubulin (expressed as a percentage of untreated (n=1)) in rat primary cortical neurons that were treated with U18666A (2 μg/ml, 24 hr) in the absence or presence of ADLL, ALL, ADL, DLL, LL, DL, and LLE (1 mM, 24 hr).
as §4, with “19” for “18.”, “is” for “is a”, “APP-CTFs-6 and -7” for “LC3-II”, “their respective CTFs in untreated cells” for “βIII tubulin”, “(n=1)” for “(n=1))”
The efficacy of ADLL, ALL, ADL, DLL, LL, DL, and LLE in alleviating the U18666A-mediated impairment of autophagosome-lysosome fusion and endosomal lysosomal fusion was investigated. In this cell-based assay of impaired EAL flux, the reappearance of basal levels of APP CTFs-6 and -7, provided an indication of improved endosomal-lysosomal fusion.
Neurons were co-treated with U18666A (2 μg/mL) along with ADLL, ALL, ADL, DLL, LL, DL, and LLE (1 mM, 24 h).

TUNEL positive cells = assay: TUNEL assay on brain sections after CCI induced TBI; type: in vivo; conditions: injured mice fed with NALL vs vehicle fed TBI mice
Experimental: as §1, §2
The level of α-fodrin cleavage products in NALL treated, vehicle treated sham, and TBI mouse cortices were determined by Western blot analysis and using the TUNEL assay to assess whether NALL treatment decreases cortical cell death after TBI. […]

SMILES: CC(=O)N[C@@H](CC(C)C)C(=O)O [ALL, acetyl-L-leucine]
- p62/SQSTM1 level in the cortex (LC3-II and p62/SQSTM1; NALL fed vs vehicle treated mice after TBI): decrease
- levels of LC3-II in the brain (LC3-II and p62/SQSTM1; NALL fed vs vehicle treated mice, day 1 after TBI): decrease
- autophagy flux (LC3-II and p62/SQSTM1; mouse cortices after TBI): improves autophagy flux
- effect on postural compensation [1]: significant effect
- level of 145-150 kDa fragments of α-fodrin (α-fodrin): lower level
- CTF-6 and -7 (endosomal-lysosomal fusion) [2]: reappearance of basal amounts
- LC3-II levels [2]: lower than the basal levels
- TUNEL positive cells in brain sections (TUNEL positive cells): Lower levels
